Experimental data as given in publication PMC6499206, “Quantification of Volatile Metabolites Derived From Garlic (Allium sativum) in Human Urine” (Frontiers in Nutrition, 2019).

Assay: Quantification of garlic-derived metabolites in human urine after ingestion of 3 g raw garlic (SIDA, SAFE, HRGC-MS / HRGC-GC-MS)
Assay type: in vivo
Parameters: metabolite in urine related to creatinine: unit not given here
Conditions: for highest detected concentration of the sample series: same bulb
Outline: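 Healthy volunteers (n=18), kept off sulfur-rich foods for 2 days before and on the test day, ate 3 g of freshly cut raw garlic; urine was collected before and 0.5–24 h after intake and frozen at −80°C. Metabolites were quantified by SIDA with deuterated AMS, AMSO and AMSO2, after DCM extraction and SAFE distillation at 50°C, then GC-MS on DB-FFAP; creatinine was measured by Jaffé reaction.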

[1] = U VII, 1 h post (1.08 h), 3 g raw garlic
[2] = U VII, 2 h post (2.00 h), 3 g raw garlic
[3] = U VII, 4 h post (4.00 h), 3 g raw garlic
[4] = U VII, 6 h post (6.00 h), 3 g raw garlic
[5] = U VII, 8 h post (8.00 h), 3 g raw garlic
[6] = U VII, 24 h post (24.00 h), 3 g raw garlic
[7] = U VII, pre (-0.25 h), 3 g raw garlic
[8] = U VIII, 0.5 h post (0.52 h), 3 g raw garlic
[9] = U VIII, 1 h post (1.08 h), 3 g raw garlic
[10] = U VIII, 2 h post (2.08 h), 3 g raw garlic
[11] = U VIII, 4 h post (4.07 h), 3 g raw garlic
[12] = U VIII, 6 h post (6.08 h), 3 g raw garlic
[13] = U VIII, 8 h post (7.90 h), 3 g raw garlic
[14] = U VIII, 24 h post (23.83 h), 3 g raw garlic
[15] = U VIII, pre (-0.33 h), 3 g raw garlic
[16] = U X, 0.5 h post (0.53 h), 3 g raw garlic
[17] = U X, 1 h post (1.03 h), 3 g raw garlic
[18] = U X, 2 h post (2.03 h), 3 g raw garlic
[19] = U X, 4 h post (3.85 h), 3 g raw garlic
[20] = U X, 6 h post (5.80 h), 3 g raw garlic
[21] = U X, 8 h post (7.75 h), 3 g raw garlic
[22] = U X, 24 h post (23.97 h), 3 g raw garlic
[23] = U X, pre (-0.07 h), 3 g raw garlic
[24] = U XI, 0.5 h post (0.50 h), 3 g raw garlic
[25] = U XI, 1 h post (1.02 h), 3 g raw garlic
[26] = U XI, 2 h post (2.00 h), 3 g raw garlic
[27] = U XI, pre (-0.08 h), 3 g raw garlic
[28] = U XII, 0.5 h post (0.48 h), 3 g raw garlic
[29] = U XII, 1 h post (1.03 h), 3 g raw garlic
[30] = U XII, 2 h post (1.85 h), 3 g raw garlic
[31] = U XII, 4 h post (3.80 h), 3 g raw garlic
[32] = U XII, 6 h post (5.82 h), 3 g raw garlic
[33] = U XII, 8 h post (7.82 h), 3 g raw garlic
[34] = U XII, 24 h post (23.92 h), 3 g raw garlic
[35] = U XII, pre (-0.08 h), 3 g raw garlic
[36] = U XIII, 0.5 h post (0.42 h), 3 g raw garlic
[37] = U XIII, 1 h post (0.92 h), 3 g raw garlic
[38] = U XIII, 2 h post (1.92 h), 3 g raw garlic
[39] = U XIII, 4 h post (3.92 h), 3 g raw garlic
[40] = U XIII, 6 h post (5.92 h), 3 g raw garlic
[41] = U XIII, 8 h post (7.92 h), 3 g raw garlic
[42] = U XIII, 24 h post (23.92 h), 3 g raw garlic
[43] = U XIII, pre (-0.08 h), 3 g raw garlic

- metabolite concentration in urine [1]: 125.9 µg/kg
- metabolite concentration in urine, creatinine-normalized [1]: 78.0 µg/mmol creatinine
- metabolite concentration in urine [2]: 139.9 µg/kg
- metabolite concentration in urine, creatinine-normalized [2]: 143.4 µg/mmol creatinine
- metabolite concentration in urine [3]: 170.5 µg/kg
- metabolite concentration in urine, creatinine-normalized [3]: 105.6 µg/mmol creatinine
- metabolite concentration in urine [4]: 203.6 µg/kg
- metabolite concentration in urine, creatinine-normalized [4]: 65.5 µg/mmol creatinine
- metabolite concentration in urine [5]: 147.2 µg/kg
- metabolite concentration in urine, creatinine-normalized [5]: 75.5 µg/mmol creatinine
- metabolite concentration in urine [6]: 15.7 µg/kg
- metabolite concentration in urine, creatinine-normalized [6]: 4.2 µg/mmol creatinine
- metabolite concentration in urine [7]: 7.0 µg/kg
- metabolite concentration in urine, creatinine-normalized [7]: 2.0 µg/mmol creatinine
- metabolite concentration in urine [8]: 112.9 µg/kg
- metabolite concentration in urine, creatinine-normalized [8]: 143.6 µg/mmol creatinine
- metabolite concentration in urine [9]: 256.0 µg/kg
- metabolite concentration in urine, creatinine-normalized [9]: 154.0 µg/mmol creatinine
- metabolite concentration in urine [10]: 301.1 µg/kg
- metabolite concentration in urine, creatinine-normalized [10]: 284.7 µg/mmol creatinine
- metabolite concentration in urine [11]: 322.0 µg/kg
- metabolite concentration in urine, creatinine-normalized [11]: 152.2 µg/mmol creatinine
- metabolite concentration in urine [12]: 348.3 µg/kg
- metabolite concentration in urine, creatinine-normalized [12]: 92.2 µg/mmol creatinine
- metabolite concentration in urine [13]: 255.0 µg/kg
- metabolite concentration in urine, creatinine-normalized [13]: 92.7 µg/mmol creatinine
- metabolite concentration in urine [14]: 48.3 µg/kg
- metabolite concentration in urine, creatinine-normalized [14]: 18.1 µg/mmol creatinine
- metabolite concentration in urine [15]: 97.6 µg/kg
- metabolite concentration in urine, creatinine-normalized [15]: 21.82 µg/mmol creatinine
- metabolite concentration in urine [16]: 15.5 µg/kg
- metabolite concentration in urine, creatinine-normalized [16]: 8.0 µg/mmol creatinine
- metabolite concentration in urine [17]: 27.7 µg/kg
- metabolite concentration in urine, creatinine-normalized [17]: 35.2 µg/mmol creatinine
- metabolite concentration in urine [18]: 48.6 µg/kg
- metabolite concentration in urine, creatinine-normalized [18]: 72.3 µg/mmol creatinine
- metabolite concentration in urine [19]: 79.1 µg/kg
- metabolite concentration in urine, creatinine-normalized [19]: 60.1 µg/mmol creatinine
- metabolite concentration in urine [20]: 89.3 µg/kg
- metabolite concentration in urine, creatinine-normalized [20]: 37.7 µg/mmol creatinine
- metabolite concentration in urine [21]: 85.2 µg/kg
- metabolite concentration in urine, creatinine-normalized [21]: 36.5 µg/mmol creatinine
- metabolite concentration in urine [22]: 53.0 µg/kg
- metabolite concentration in urine, creatinine-normalized [22]: 4.9 µg/mmol creatinine
- metabolite concentration in urine [23]: < LOD^3
- metabolite concentration in urine, creatinine-normalized [23]: < LOD^3
- metabolite concentration in urine [24]: 27.5 µg/kg
- metabolite concentration in urine, creatinine-normalized [24]: 33.4 µg/mmol creatinine
- metabolite concentration in urine [25]: 65.7 µg/kg
- metabolite concentration in urine, creatinine-normalized [25]: 82.6 µg/mmol creatinine
- metabolite concentration in urine [26]: 93.5 µg/kg
- metabolite concentration in urine, creatinine-normalized [26]: 122.1 µg/mmol creatinine
- metabolite concentration in urine [27]: 9.0 µg/kg
- metabolite concentration in urine, creatinine-normalized [27]: 2.6 µg/mmol creatinine
- metabolite concentration in urine [28]: 17.3 µg/kg
- metabolite concentration in urine, creatinine-normalized [28]: 2.3 µg/mmol creatinine
- metabolite concentration in urine [29]: 33.1 µg/kg
- metabolite concentration in urine, creatinine-normalized [29]: 33.6 µg/mmol creatinine
- metabolite concentration in urine [30]: 48.2 µg/kg
- metabolite concentration in urine, creatinine-normalized [30]: 72.4 µg/mmol creatinine
- metabolite concentration in urine [31]: 76.1 µg/kg
- metabolite concentration in urine, creatinine-normalized [31]: 28.5 µg/mmol creatinine
- metabolite concentration in urine [32]: 82.8 µg/kg
- metabolite concentration in urine, creatinine-normalized [32]: 14.3 µg/mmol creatinine
- metabolite concentration in urine [33]: 61.4 µg/kg
- metabolite concentration in urine, creatinine-normalized [33]: 21.6 µg/mmol creatinine
- metabolite concentration in urine [34]: 6.6 µg/kg
- metabolite concentration in urine, creatinine-normalized [34]: 0.4 µg/mmol creatinine
- metabolite concentration in urine [35]: 2.0 µg/kg
- metabolite concentration in urine, creatinine-normalized [35]: 0.1 µg/mmol creatinine
- metabolite concentration in urine [36]: 19.8 µg/kg
- metabolite concentration in urine, creatinine-normalized [36]: 12.4 µg/mmol creatinine
- metabolite concentration in urine [37]: 145.0 µg/kg
- metabolite concentration in urine, creatinine-normalized [37]: 58.5 µg/mmol creatinine
- metabolite concentration in urine [38]: 182.5 µg/kg
- metabolite concentration in urine, creatinine-normalized [38]: 52.4 µg/mmol creatinine
- metabolite concentration in urine [39]: 174.3 µg/kg
- metabolite concentration in urine, creatinine-normalized [39]: 36.8 µg/mmol creatinine
- metabolite concentration in urine [40]: 105.0 µg/kg
- metabolite concentration in urine, creatinine-normalized [40]: 9.0 µg/mmol creatinine
- metabolite concentration in urine [41]: 67.5 µg/kg
- metabolite concentration in urine, creatinine-normalized [41]: 7.7 µg/mmol creatinine
- metabolite concentration in urine [42]: 8.5 µg/kg
- metabolite concentration in urine, creatinine-normalized [42]: 1.0 µg/mmol creatinine
- metabolite concentration in urine [43]: < LOD^3
- metabolite concentration in urine, creatinine-normalized [43]: < LOD^3
- variation factor of the concentration maxima between test persons (Urine XIII-XVI, highest vs lowest maximum): 2.2
- highest detected concentration of the sample series (Urine XIII, 3 g raw garlic): 58.5 μg/mmol creatinine
- highest detected concentration of the sample series (Urine XIV (AMS: printed Urine UIV), 3 g raw garlic): 60.1 μg/mmol creatinine
- highest detected concentration of the sample series (Urine XV, 3 g raw garlic): 83.1 μg/mmol creatinine
- time of highest concentration in urine after garlic consumption (Urine XVI, 3 g raw garlic): 4 h
- highest detected concentration of the sample series (Urine XVI, 3 g raw garlic): 37.19 μg/mmol creatinine
- metabolite in urine related to creatinine (urine set U XIX, 0.5 h post (0.50 h), garlic 3.1133 g): 4.4
- metabolite in urine related to creatinine (urine set U XIX, 1 h post (1.00 h), garlic 3.1133 g): 41.2
- metabolite in urine related to creatinine (urine set U XIX, 2 h post (2.00 h), garlic 3.1133 g): 77.6
- metabolite in urine related to creatinine (urine set U XIX, 4 h post (4.00 h), garlic 3.1133 g): 41.4
- metabolite in urine related to creatinine (urine set U XIX, 6 h post (6.20 h), garlic 3.1133 g): 30.7
- metabolite in urine related to creatinine (urine set U XIX, 8 h post (7.93 h), garlic 3.1133 g): 24.3
- metabolite in urine related to creatinine (urine set U XIX, 24 h post (23.98 h), garlic 3.1133 g): 1.8
- metabolite in urine related to creatinine (urine set U XIX, pre (-0.07 h), garlic 3.1133 g): < LOD^3
- metabolite in urine related to creatinine (urine set U XVII, 0.5 h post (0.58 h), garlic 3.1559 g): 0.3
- metabolite in urine related to creatinine (urine set U XVII, 1 h post (1.00 h), garlic 3.1559 g): 4.7
- metabolite in urine related to creatinine (urine set U XVII, 2 h post (2.17 h), garlic 3.1559 g): 32.1
- metabolite in urine related to creatinine (urine set U XVII, 4 h post (4.00 h), garlic 3.1559 g): 27.6
- metabolite in urine related to creatinine (urine set U XVII, 6 h post (6.08 h), garlic 3.1559 g): 3.0
- metabolite in urine related to creatinine (urine set U XVII, 8 h post (8.00 h), garlic 3.1559 g): 5.1
- metabolite in urine related to creatinine (urine set U XVII, 24 h post (23.92 h), garlic 3.1559 g): 0.7
- metabolite in urine related to creatinine (urine set U XVII, pre (-0.08 h), garlic 3.1559 g): traces^3
- metabolite in urine related to creatinine (urine set U XVIII, 0.5 h post (0.63 h), garlic 3.1981 g): 14.7
- metabolite in urine related to creatinine (urine set U XVIII, 1 h post (1.05 h), garlic 3.1981 g): 40.5
- metabolite in urine related to creatinine (urine set U XVIII, 2 h post (2.00 h), garlic 3.1981 g): 68.1
- metabolite in urine related to creatinine (urine set U XVIII, 4 h post (3.97 h), garlic 3.1981 g): 56.4
- metabolite in urine related to creatinine (urine set U XVIII, 6 h post (5.97 h), garlic 3.1981 g): 26.3
- metabolite in urine related to creatinine (urine set U XVIII, 8 h post (8.30 h), garlic 3.1981 g): 42.2
- metabolite in urine related to creatinine (urine set U XVIII, 24 h post (24.13 h), garlic 3.1981 g): 1.3
- metabolite in urine related to creatinine (urine set U XVIII, pre (-0.08 h), garlic 3.1981 g): < LOD^3
Compound: C=CCS(C)(=O)=O [AMSO2, allyl methyl sulfone]
